Assays:
[1] = system: carrageenin-induced paw inflammation; assay: paw inflammation induced by carrageenin in mice; format: in vivo; settings: for Paw Swelling mm (M ± SD) at 3 hours / Paw Swelling mm (M ± SD) at 6 hours / anti-inflammatory effects compared with nimesulide (in words): mice; for Paw Swelling mm (M ± SD) at 3 hours / Paw Swelling mm (M ± SD) at 6 hours: orally administered; for Paw Swelling mm (M ± SD) at 3 hours: 0.243 mM/Kg; for Paw Swelling mm (M ± SD) at 6 hours: 0.485 mM/Kg; for anti-inflammatory effects relative to nimesulide (times stronger): 0.243 mM/kg vs nimesulide 0.243 mM/kg; for Paw Swelling mm (M ± SD) at 3 hours / anti-inflammatory effects relative to nimesulide (times stronger): at 3 hours; for anti-inflammatory effects compared with nimesulide (in words): oral
[2] = system: acetate-induced body twisting; assay: acetate-induced body twisting in mice (analgesic effect); settings: for analgesic effects compared with nimesulide (in words): oral
[3] = acute oral toxicity in mice; settings: orally administered
[4] = orally administered, 0.485 mM/Kg
[5] = orally administered, 0.97 mM/Kg

| Compound | Paw Swelling mm (M ± SD) at 3 hours [1] [mm] | Paw Swelling mm (M ± SD) at 6 hours [1] [mm] | No. of body-twisting (M ± SD) at 3 hours [2, 4] | No. of body-twistings (M ± SD) at 1 hour [2, 5] | No. of body-twisting (M ± SD) at 6 hours ([2]; orally administered, 0.97 (head: mg/Kg), at 6 hours) | anti-inflammatory effects relative to nimesulide (times stronger) [1] | anti-inflammatory effects compared with nimesulide (in words) [1] | analgesic effects compared with nimesulide (in words) [2] | No. of body-twistings (M ± SD) at 1 hour [2, 4] | LD50 value (95% C.L.) [3] [mg/kg] | toxicity relative to nimesulide (times lower) [3] |
| --- | --- | --- | --- | --- | --- | --- | --- | --- | --- | --- | --- |
| CS(=O)(=O)Nc1ccc([N+](=O)[O-])cc1Oc1ccccc1 [Nimesulide, nimesulide, reference compound] | 2.10 ± 1.39 | 2.58 ± 1.20 | 11.1 ± 9.7 | 14.8 ± 11.7 | 21.00 ± 19.09 |  |  |  |  |  |  |
| 4-nitro-2-[(4′-methoxy)-phenoxy]-methanesulfonyl aniline [S6] | 0.58 ± 0.67 | 1.91 ± 0.66 |  | 10.8 ± 11.4 |  | about 4 times | significantly stronger than that of nimesulide | significantly stronger than nimesulide | 11.4 ± 5.3 | 2355.5 | about 4 times |
| COc1ccc(Oc2cc([N+](=O)[O-])ccc2NS(C)(=O)=O)cc1.C[C@H]1CC[C@H](N)CC1 [S9, 4-nitro-2-[(4′-methoxy)-phenoxy]-methanesulfonyl aniline, trans-4-methyl-cyclohexylamine salt] | 1.18 ± 0.65 |  | 6.7 ± 6.2 |  |  | 2 times | significantly stronger than that of nimesulide | significantly stronger than nimesulide |  | 1223.3 | about 2 times |
